One assay concerns the target T1, CSF-1R (Fms, active) (Homo sapiens, UniProt P07333).
T1 construct: purchased Eurofins DiscoverX Products, LLC 14-551
The experiment in a line: Evaluation of CSF-1R inhibitory activity by TR-FRET method (HTRF KinEASE-TK kit). The class given is biochemical. To be noted: for IC50: TR-FRET method, phosphorylation of substrate peptide, enzyme 0.05 μg/mL; for inhibitory activities against CSF-1R (in words): statement referring to the Test Examples. The method, then:
The CSF-1R inhibitory activity of an inventive compound was evaluated by a TR-FRET method using phosphorylation of a substrate peptide of CSF-1R as the index.
The inventive compound was dissolved in dimethyl sulfoxide sterilized by filtration to prepare a 10 μmol/L solution. This solution was dispensed using an acoustic noncontact type nanoliter dispenser (Echo 550, LABCYTE Inc.) such that the final concentrations were within a range from 0.25 to 180 nmol/L.
The assay was performed using an HTRF™ KinEASE™-TK kit (Cisbio Bioassays, 62TK0PEC) by the procedure in accordance with the manual (62TK0PEC rev04(2009)). In the assay, a 384-well plate (Greiner 784076 Black 384 well, Small volume, Greiner Bio-One International GmbH) was used. The enzyme was Fms, active (14-551, Eurofins DiscoverX Products, LLC), which was prepared such that the final concentration was 0.05 μg/mL. TR-FRET measurement (fluorescence of 620 nm and 665 nm) was performed using an HTRF-dedicated microplate reader (K-101, Kyoritsu Radio Service Co., Ltd.). The proportion of the fluorescence quantity at each wavelength as the index of phosphorylation [((quantity of 665 nm fluorescence)/(quantity of 620 nm fluorescence))×10,000] was calculated, and the IC50 value was determined by statistical treatment of the proportion of the fluorescence quantity at each compound concentration.

In assay [1] the test system is human non-small cell lung cancer cell line NCI-H460. Nature of the assay: Antitumor effect in human non-small cell lung cancer cell line NCI-H460 subcutaneously transplanted nude mouse model. The class given is in vivo, BALB/c-nu/nu mouse. To be noted: 300 mg/kg by gavage. As to the method:
The antitumor effect of the inventive compound was examined using a human non-small cell lung cancer cell line NCI-H460 subcutaneously transplanted nude mouse model.
A cell culture medium was prepared by adding 5.6 mL of Penicillin-Streptomycin (Sigma-Aldrich Co. LLC), 56 mL of FBS (MP Biomedicals), 5.6 mL of 1 mol/L HEPES (Sigma-Aldrich Co. LLC), 5.6 mL of 100 mmol/L Sodium Pyruvate (Life Technologies), and 1.4 g of D-(+)-Glucose (Wako Pure Chemical Industries, Ltd.) to a RPMI1640 culture medium (Sigma-Aldrich Co. LLC). NCI-H460 cells (American Type Culture Collection) were cultured using the prepared culture medium at 37° C. in a 5% CO2 incubator.
The cultured NCI-H460 cells were suspended in PBS. […]
From the day of grouping, the administration solutions were administered by gavage to mice transplanted with cancer cells (15 mice in each group) for the total of 22 days, once a day on the day of the grouping and the last day and twice a day on other days. […] The administration volume was calculated from the last body weight of each.
The tumor volume of each mouse was calculated by the following equation, and the antitumor effect was evaluated using the tumor volume as the index. […]

T1 sequence (P07333 20-972): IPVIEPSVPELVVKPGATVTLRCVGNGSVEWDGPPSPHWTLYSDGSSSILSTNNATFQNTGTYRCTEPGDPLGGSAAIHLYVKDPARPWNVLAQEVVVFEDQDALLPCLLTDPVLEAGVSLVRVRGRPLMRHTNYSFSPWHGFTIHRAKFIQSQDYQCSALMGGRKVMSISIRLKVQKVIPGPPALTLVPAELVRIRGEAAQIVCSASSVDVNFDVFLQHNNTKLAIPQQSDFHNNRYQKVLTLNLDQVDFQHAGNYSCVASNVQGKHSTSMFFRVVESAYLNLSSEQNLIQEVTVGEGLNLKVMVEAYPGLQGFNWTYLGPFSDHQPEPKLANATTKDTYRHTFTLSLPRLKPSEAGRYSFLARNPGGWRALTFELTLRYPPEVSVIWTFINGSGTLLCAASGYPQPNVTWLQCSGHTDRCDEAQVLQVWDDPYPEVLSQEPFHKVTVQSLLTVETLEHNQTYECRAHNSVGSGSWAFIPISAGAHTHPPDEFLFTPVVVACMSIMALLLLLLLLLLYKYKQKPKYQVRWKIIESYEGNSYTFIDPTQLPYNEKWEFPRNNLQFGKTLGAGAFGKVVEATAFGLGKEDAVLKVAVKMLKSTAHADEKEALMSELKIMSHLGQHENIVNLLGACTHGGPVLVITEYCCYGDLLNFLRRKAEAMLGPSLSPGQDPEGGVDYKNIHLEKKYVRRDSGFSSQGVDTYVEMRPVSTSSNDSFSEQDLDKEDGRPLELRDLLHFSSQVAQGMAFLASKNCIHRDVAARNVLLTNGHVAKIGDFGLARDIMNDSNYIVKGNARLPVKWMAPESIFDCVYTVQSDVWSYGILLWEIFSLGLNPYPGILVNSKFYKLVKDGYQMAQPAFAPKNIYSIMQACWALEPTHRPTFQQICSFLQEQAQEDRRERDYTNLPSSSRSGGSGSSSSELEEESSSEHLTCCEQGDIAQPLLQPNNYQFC

Take `CC(=O)N1CC=C(c2[nH]c3ncc(C#CCCO)cc3c2CC(C)C)CC1` [Example 7, 1-(4-(5-(4-hydroxybut-1-yn-1-yl)-3-isobutyl-1H-pyrrolo[2,3-b]pyridin-2-yl)-3,6-dihydropyridin-1(2H)-yl)ethan-1-one]: on CSF-1R (Fms, active), the IC50 was less than 10 nM and the “inhibitory activities against CSF-1R (in words)” value (“inhibitory activities” below) is on record as “potent inhibitory activities”.
Consider `OCCC#Cc1cnc2[nH]c(-c3ccc(N4CCOCC4)cc3)c(CN3CCOCC3)c2c1` [Example 4, 4-(3-(morpholinomethyl)-2-(4-morpholinophenyl)-1H-pyrrolo[2,3-b]pyridin-5-yl)but-3-yn-1-ol], for which, on CSF-1R (Fms, active), the IC50 is less than 10 nM and the “inhibitory activities” value is reported as “potent inhibitory activities”.
In the same order, the values of `OCCC#Cc1cnc2[nH]c(-c3ccc(N4CCC(O)CC4)cc3)c(CN3CCOCC3)c2c1` [Example 5, 1-(4-(5-(4-hydroxybut-1-yn-1-yl)-3-(morpholinomethyl)-1H-pyrrolo[2,3-b]pyridin-2-yl)phenyl)piperidin-4-ol] are less than 10 nM and “potent inhibitory activities”.
For the compound `COc1cc(-c2[nH]c3ncc(C#CCCO)cc3c2CN2C3CCC2COC3)ccc1OC1COC1` [Example 6, 4-(3-((3-oxa-8-azabicyclo[3.2.1]octan-8-yl)methyl)-2-(3-methoxy-4-(oxetan-3-yloxy)phenyl)-1H-pyrrolo[2,3-b]pyridin-5-yl)but-3-yn-1-ol], on CSF-1R (Fms, active), the IC50 lay within 10 to 30 nM and the “inhibitory activities” value is given as “potent inhibitory activities”.
As to `COc1ccc(-c2[nH]c3ncc(C#CCCO)cc3c2CN2CCOCC2)cc1` [Example 1, 4-(2-(4-methoxyphenyl)-3-(morpholinomethyl)-1H-pyrrolo[2,3-b]pyridin-5-yl)but-3-yn-1-ol], at CSF-1R (Fms, active), the half-maximal inhibitory concentration (IC50) lay within 30 to 100 nM and the “inhibitory activities” value is listed as “potent inhibitory activities”. Further, the “Tumor growth inhibition rate (TGI %)” value in assay [1] (22 days, last administration day, NCI-H460 nude mouse) turned out to be 61%. The “tumor growth inhibition (in words, FIG. 1)” value in assay [1] (tumor volume vs Control group, Student's t test) is listed as “significant tumor growth inhibition”.
For `COc1ccc(-c2[nH]c3ncc(C#CCCO)cc3c2CN2CCOCC2)cc1OC` [Example 3, 4-(2-(3,4-dimethoxyphenyl)-3-(morpholinomethyl)-1H-pyrrolo[2,3-b]pyridin-5-yl)but-3-yn-1-ol], at CSF-1R (Fms, active), the IC50 lay in the range of 10 to 30 nM and the “inhibitory activities” value is given as “potent inhibitory activities”.
In the case of `COc1ccc(-c2[nH]c3ncc(C#CCCO)cc3c2CC2CCOCC2)cn1` [Example 9, 4-(2-(6-methoxypyridin-3-yl)-3-((tetrahydro-2H-pyran-4-yl)methyl)-1H-pyrrolo[2,3-b]pyridin-5-yl)but-3-yn-1-ol], at CSF-1R (Fms, active), the half-inhibitory concentration (IC50) was less than 10 nM and the “inhibitory activities” value is given as “potent inhibitory activities”.
In the same order, the values of `COc1ccc(-c2[nH]c3ncc(C#CCCO)cc3c2CN2C3CCC2COC3)cc1` [Example 2, 4-(3-((3-oxa-8-azabicyclo[3.2.1]octan-8-yl)methyl)-2-(4-methoxyphenyl)-1H-pyrrolo[2,3-b]pyridin-5-yl)but-3-yn-1-ol] are 10 to 30 nM and “potent inhibitory activities”.
For the compound `CC(=O)N1CC=C(c2[nH]c3ncc(C#CCCO)cc3c2CC2CCOCC2)CC1` [Example 8, 1-(4-(5-(4-hydroxybut-1-yn-1-yl)-3-((tetrahydro-2H-pyran-4-yl)methyl)-1H-pyrrolo[2,3-b]pyridin-2-yl)-3,6-dihydropyridin-1(2H)-yl)ethan-1-one], at CSF-1R (Fms, active), the half-inhibitory concentration (IC50) is less than 10 nM and the “inhibitory activities” value was “potent inhibitory activities”.
